As usually defined, the Emax is the maximal effect, on the per cent scale that the assay sets.

Assay [1] concerns LPS-treated 3T3-L1 adipocytes. Description: Adiponectin secretion in LPS/3T3-L1 adipocytes. The class given is cell-based, murine. The settings on record: for Maximum adiponectin stimulation: 100 ng/ml LPS, D5 3T3-L1; for Concentration of maximum stimulation of adiponectin secretion: LPS/3T3-L1 adipocytes; for Emax: Mus musculus, 3T3-L1, at the concentration of maximum stimulation (c1), NS = not significantly different from the LPS control.

The subject of assay [2] is LPS-stimulated 3T3-L1 adipocytes. Description: IL-6 secretion in LPS/3T3-L1 adipocytes. The assay is classed as cell-based, murine. The conditions noted are these: 100 ng LPS/ml, D5 3T3-L1 adipocytes.
Assay [3] deals with insulin-resistant 3T3-L1 adipocytes. Kind of assay: Adiponectin secretion from insulin-resistant 3T3-L1 adipocytes. The assay is classed as cell-based, murine. The conditions noted are these: for Adiponectin/IL-6: ratio of Adiponectin Index to IL-6 Index, insulin-resistant 3T3-L1 adipocytes; for EC50: Mus musculus; for Maximum Adiponectin Secretion: estimated from the y-intercept of Hofstee plots; for dose at which maximal adiponectin secretion was observed: of four doses tested.

Assay [4] relates to TNFα-treated 3T3-L1 adipocytes. Kind of assay: Adiponectin secretion from TNFα-treated 3T3-L1 adipocytes. The class given is cell-based, murine.
Procedure: For two days, the cells were allowed grow to reach confluence. […] (3) 0.5 μM dexamethasone and (4) 10 μg/ml insulin (MDI medium). […] Adiponectin Assay—The adiponectin secreted into the medium was quantified using the Mouse Adiponectin Quantikine® Immunoassay kit with no modifications (R&D Systems, Minneapolis, Minn.). […] Statistical Calculations and Interpretation—All assays were preformed in duplicate. […] Differences among the doses and test agents were determined using the Student's t-test without correction for multiple comparisons; the nominal five percent probability of a type I error was selected.
Assay [5] has as its system NF-kBp65 nuclear translocation. Kind of assay: Nuclear NF-kBp65 (TransAM) in TNFα-treated 3T3-L1 adipocytes. The assay is classed as cell-based, murine. The settings on record: for inhibition of nuclear translocation of NF-kBp65 / inhibition at 5 µg/mL: 5.0 μg/ml; for inhibition at […] / inhibition at 5 µg/mL: Mus musculus; for inhibition at […]: 2.5 μg/ml. As to the method:
Cell Culture and Treatment—Following differentiation 3T3-L1 adipocytes were maintained in post-differentiation medium for an additional 40 days. […] Hops derivatives and the positive control pioglitazone were tested at concentrations of 2.5, and 5.0 μg/ml. Test materials were added 1 hour prior to and nuclear extracts were prepared three and 24 hours following treatment with TNFα.
ELISA—3T3-L1 adipocytes were maintained in growth media for 40 days following differentiation. Nuclear NF-kBp65 was determined using the TransAM™ NF-kB kit from Active Motif (Carlsbad, Calif.) was used with no modifications. Jurkat nuclear extracts provided in the kit were derived from cells cultured in medium supplemented with 50 ng/ml TPA (phorbol, 12-myristate, 13 acetate) and 0.5 μM calcium ionophore A23187 for two hours at 37° C. immediately prior to harvesting.
Protein assay—Nuclear protein was quantified using the Active Motif Fluorescent Protein Quantification Kit.

The subject of assay [6] is TNFα-treated 3T3-L1 adipocytes. Description: IL-6 secretion from TNFα-treated 3T3-L1 adipocytes. The assay is classed as cell-based, murine. The conditions noted are these: for IL-6 Index: D5 3T3-L1 adipocytes, indexed to TNFα control.
Assay [7] can be described thus: Non-fasting serum glucose and insulin in db/db diabetic mice. The class given is in vivo, mouse. The settings on record: three consecutive days.
Procedure: The Model—Male, C57BLKS/J m^+/m^+Lepr^db (db/db) mice were used to assess the potential of the test materials to reduce fasting serum glucose or insulin concentrations. This strain of mice is resistant to leptin by virtue of the absence of a functioning leptin receptor.
Testing Procedure—Test substances were administered daily by gavage in 0.2% Tween-80. Serum was collected from the retroorbital sinus before the initial dose and ninety minutes after the third and final dose. Non-fasting serum glucose was determined enzymatically by the mutarotase/glucose oxidase method and serum insulin was determined by a mouse specific ELISA.
The Model—Male, C57BLKS/J m+/m+ Leprdb (db/db) mice were used to assess the potential of the test materials to reduce fasting serum glucose or insulin concentrations. This strain of mice is resistant to leptin by virtue of the absence of a functioning leptin receptor.
Testing Procedure—Test substances were administered daily by gavage in 0.2% Tween-80. Serum was collected from the retroorbital sinus before the initial dose and ninety minutes after the fifth and final dose. Non-fasting serum glucose was determined enzymatically by the mutarotase/glucose oxidase method and serum insulin was determined by a mouse specific ELISA.
In another assay the test system is 3T3-L1 adipocytes. Kind of assay: Lipogenesis (Oil Red O / BODIPY) in 3T3-L1 adipocytes. The class given is cell-based, murine. The conditions noted are these: 50 μg test material/ml.
Assay [8] can be described thus: Collagen induced rheumatoid arthritis murine model. The assay is classed as in vivo, mouse. The conditions noted are these: 10 mg/kg.
The subject of assay [9] is RL 95-2 endometrial cancer cells. Kind of assay: Cancer cell proliferation, CyQuant. The assay is classed as cell-based. The conditions noted are these: Homo sapiens, RL95-2; 10 μg/ml, 72 hours; read-out: inhibition of cell proliferation relative to the DMSO solvent control. As to the method:
Methods—The inhibitory effects of test compounds of the present invention on cancer cell proliferation were examined in the RL 95-2 endometrial cancer cell model (an over expressor of AKT kinase), and in the HT-29 (constitutively expressing COX-2) and SW480 (constitutively expressing activated AKT kinase) colon cancer cell models. Briefly, the target cells were plated into 96 well tissue culture plates and allowed to grow until subconfluent. The cells were then treated for 72 hours with various amounts of the test compounds as described in Example 4 and relative cell proliferation determined by the CyQuant (Invitrogen, Carlsbad, Calif.) commercial fluorescence assay.

The subject of assay [10] is A549 pulmonary epithelial cells. Kind of assay: Mite dust allergen stimulated PGE2 biosynthesis in A549 cells. The conditions noted are these: 10 μg/ml, added 60 min before mite dust allergen 1000 ng/ml, 18 h. The assay is classed as cell-based, human. The text has this:
Mite dust allergen isolation—Dermatophagoides farinae is the American house dust mite. D. farinae were raised on a 1:1 ratio of Purina Laboratory Chow (Ralston Purina, Co, St. Louis, Mo.) and Fleischmann's granulated dry yeast (Standard Brands, Inc. New York, N.Y.) at room temperature and 75% humidity. Live mites were aspirated from the culture container as they migrated from the medium, killed by freezing, desiccated and stored at 0% humidity. The allergenic component of the mite dust was extracted with water at ambient temperature. Five-hundred mg of mite powder were added to 5 ml of water (1:10 w/v) in a 15 ml conical centrifuge tube (VWR, Rochester, N.Y.), shaken for one minute and allowed to stand overnight at ambient temperature. The next day, the aqueous phase was filtered using a 0.2 μm disposable syringe filter (Nalgene, Rochester, N.Y.). The filtrate was termed mite dust allergen and used to test for induction of PGE2 biosynthesis in A549 pulmonary epithelial cells.
Cell culture and treatment—The human airway epithelial cell line, A549 (American Type Culture Collection, Bethesda, Md.) was cultured and treated as previously described in Example 6. Mite allergen was added to the culture medium to achieve a final concentration of 1000 ng/ml. Eighteen hours later, the media were sampled for PGE2 determination.

[11] abbreviates: Mus musculus, 3T3-L1, 1.0 μg/ml, with 10 ng TNFα/ml, read-out: % Inhibition of IL-6 secretion.
Setting [12] is: 3T3-L1, 3 h, three hours post TNFα.

In brackets after ≈: the same amount, converted by molar mass. Read-outs that look alike come from different tables or passages of the source. Marks after values point to notes of the source that are not given here.

With `CC(=O)Oc1ccccc1C(=O)O` [Aspirin], in assay [1], the Maximum adiponectin stimulation result was “failed to induce adiponectin secretion”, the “Concentration of maximum stimulation of adiponectin secretion” value (from here on “Concentration … of adiponectin secretion”) was 113 µg/mL and the maximum response (Emax) is under 7%. Also, the “Concentration providing the maximum inhibition of IL-6 secretion” value in [2] is 25.0 µg/mL.
Consider `CC(C)CCC1=C(O)C(C(=O)C(C)C)=C(O)C(CCC(C)C)(CCC(C)C)C1=O` [Hexahydrocolupulone (HHCL)], for which, in assay [3] (50.0 μg/ml), the Adiponectin/IL-6 is on record as 0.60#.
In assay [1], `COc1ccc2c(c1)c(CC(=O)O)c(C)n2C(=O)c1ccc(Cl)cc1` [Indomethacin, indomethacin] returned a Maximum adiponectin stimulation of 9%.
As for `CCc1ccc(CCOc2ccc(CC3SC(=O)NC3=O)cc2)nc1` (centres unmarked) [Pioglitazone], in assay [4] (10 ng TNFα/ml), the “Concentration of maximum adiponectin secretion” value stood at 1.25 µg/mL and the “maximum increase of adiponectin secretion over the TNFα control” value is given as 80%. The “Adiponectin Index Observed” value in assay [4] (1.0 μg/ml, TNFα/3T3-L1 model, indexed to TNFα control (Table 26)) worked out at 1.80. In addition, the “Concentration of maximum adiponectin secretion” value in assay [4] (Table 16, 10 ng TNFα/ml) came to 1.25 µg/mL. Further, in [4] (Table 16, maximum over four doses, 10 ng TNFα/ml), the “Adiponectin Index” value was 1.47. Also, in assay [1], the Maximum adiponectin stimulation amounted to 12%, the “Concentration … of adiponectin secretion” value came to 1.25 µg/mL and the Emax worked out at 12%. For the same compound, the “Concentration providing the maximum inhibition of IL-6 secretion” value in assay [2] came out at 5.00 µg/mL. In addition, the “inhibition of nuclear translocation of NF-kBp65” value in assay [5] (24 hours post TNFα) is listed as “did not inhibit”. In addition, in [5] (three hours post TNFα), the “inhibition of nuclear translocation of NF-kBp65” value is reported as “did not inhibit”.
Turning to `Cc1c(C)c2c(c(C)c1O)CCC(C)(COc1ccc(CC3SC(=O)NC3=O)cc1)O2` (centres unmarked) [Troglitazone], in [4] (10 ng TNFα/ml), the “Concentration of maximum adiponectin secretion” value is 0.625 µg/mL and the “maximum increase of adiponectin secretion over the TNFα control” value is 51%. For the same compound, the inhibition at 1 µg/mL in assay [6] (Mus musculus, 3T3-L1, 1 μg/ml, 10 ng TNFα/ml, read-out: inhibition of IL-6 secretion relative to the controls) worked out at 34%. Further, in assay [6] (setting [11]), the inhibition at 1 µg/mL is 34%. Moreover, in assay [1], the Maximum adiponectin stimulation came out at 15%, the “Concentration … of adiponectin secretion” value is 0.625 µg/mL and the Emax came to 15%. In assay [3] (5.0 μg/ml), the Adiponectin/IL-6 was 1.12. Also, the EC50 in assay [3] (3T3-L1, half maximal adiponectin secretion, estimated from the slope of Hofstee plots, insulin-resistant 3T3-L1 cells, read-out: Test Material at Half Maximal Secretion) is 0.085 µg/mL (≈ 0.193 µM). Also, the EC50 in [3] (3T3-L1, slope of modified Hofstee plot, read-out: concentration required for half maximal adiponectin secretion) was 0.085 µg/mL (≈ 0.193 µM). In assay [3] (insulin-resistant 3T3-L1 cells), the “Maximum Adiponectin Secretion” value was 2.29 Fold relative to control. Also, in assay [3] (modified Hofstee plot), the “Maximum adiponectin secretion estimated from the y-intercept” value is on record as 2.29 fold. In addition, the “Concentration providing the maximum inhibition of IL-6 secretion” value in assay [2] is 10.0 µg/mL.
On to `CC(C)CCC1=C(O)C(C(=O)C(C)C)=C(O)C(CCC(C)C)(CCC(C)C)C1=O` [hexahydro colupulone, hexahydrocolupulone], for which the “Maximum Adiponectin Secretion” value in assay [3] (insulin-resistant 3T3-L1 cells) is 1.83 Fold relative to control. Also, the “dose at which maximal adiponectin secretion was observed” value in [3] was found to be 12.5 µg/mL. Besides, the “concentration required for half maximal adiponectin secretion” value in assay [3] (slope of modified Hofstee plot) is 3.2 µg/mL.
With `CC(C)Cc1ccc(C(C)C(=O)O)cc1` (centres unmarked) [ibuprofen], in assay [1], the Maximum adiponectin stimulation was 22%, the “Concentration … of adiponectin secretion” value stood at 0.625 µg/mL and the Emax was found to be 22%. Also, in [2], the “Concentration providing the maximum inhibition of IL-6 secretion” value came to 0.625 µg/mL.
Take `CN(C)C(=N)N=C(N)N` [metformin, Metformin]: the “reduction in serum insulin” value in [7] came out at 17%. Also, the “lipogenic index (observed)” value in the assay with 3T3-L1 adipocytes is 0.79. For the same compound, the “IL-6 Index” value in [6] (1.0 μg/ml, with 10 ng TNFα/ml) was 0.91; in assay [6] (5.0 μg/ml, with 10 ng TNFα/ml) it was 0.96; in [6] (10 μg/ml, with 10 ng TNFα/ml), 0.78; in assay [6] (50 μg/ml, with 10 ng TNFα/ml) it was 0.78. Further, the inhibition at 1 µg/mL in assay [6] (setting [11]) worked out at 9%. The inhibition at 5 µg/mL in assay [6] (Mus musculus, 3T3-L1, 5.0 μg/ml, with 10 ng TNFα/ml) stood at 4%. This compound also came in with an inhibition at 10 µg/mL in assay [6] (Mus musculus, 3T3-L1, 10 μg/ml, with 10 ng TNFα/ml) of 22%. The compound further gave an inhibition at 50 µg/mL in assay [6] (Mus musculus, 3T3-L1, 50 μg/ml, with 10 ng TNFα/ml) of 22%.
For the compound `C[C@]12C=CC(=O)C=C1CC[C@@H]1[C@@H]2[C@@H](O)C[C@@]2(C)[C@H]1CC[C@]2(O)C(=O)CO` [prednisolone], in [8], the “days with significant reduction of arthritic index” value is 30 to 42 days.
As to `O=C(O)c1ccccc1O` [salicylic acid], in assay [1], the Maximum adiponectin stimulation entry was “failed to induce adiponectin secretion”, the “Concentration … of adiponectin secretion” value was 173 µg/mL and the Emax is under 7%. The “Concentration providing the maximum inhibition of IL-6 secretion” value in assay [2] is 50.0 µg/mL.
Regarding `COc1cc(O)c(CC=C(C)C)c(O)c1C(=O)/C=C/c1ccc(O)cc1` [xanthohumol], the “dose at which maximal adiponectin secretion was observed” value in assay [3] came to 1.25 µg/mL. Besides, in assay [5] (setting [12]), the inhibition at […] came out at 6.9% and the inhibition at 5 µg/mL stood at 15.6%. In assay [5] (3T3-L1, 24 hours post TNFα), this compound had an inhibition at […] of 8% and an inhibition at 5 µg/mL of 13.4%. Besides, the inhibition at 10 µg/mL in assay [9] is over 50%.
In the case of Beta acids, in assay [10], the “Percent PGE2 Inhibition” value was 83%.
